In experiment [1] the target is T1, Tyrosine-protein phosphatase non-receptor type 7 (Homo sapiens, UniProt P35236).
T1 sequence (P35236 whole entry): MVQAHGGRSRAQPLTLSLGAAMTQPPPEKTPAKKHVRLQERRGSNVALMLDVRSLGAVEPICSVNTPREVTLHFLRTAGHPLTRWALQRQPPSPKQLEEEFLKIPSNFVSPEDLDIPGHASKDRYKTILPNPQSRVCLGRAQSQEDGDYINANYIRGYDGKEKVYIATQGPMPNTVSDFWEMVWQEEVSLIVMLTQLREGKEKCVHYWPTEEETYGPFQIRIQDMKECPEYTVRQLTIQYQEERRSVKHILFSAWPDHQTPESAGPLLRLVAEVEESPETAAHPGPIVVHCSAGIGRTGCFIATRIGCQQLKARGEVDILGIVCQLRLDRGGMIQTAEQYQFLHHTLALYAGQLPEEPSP
In words: inhibitors of human HePTP phosphatase, […], biochemical, absorbance, leukemia target (AID 521). It is filed as functional.

Experiment [2] is described as follows: inhibitors of PGC1a acetylation in cells, dose response, cell-based, cherry-picked samples (AID 720514).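 Note: potency may reflect raised or lowered acetylation signal.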 It counts as functional.
A short description of experiment [3]: growth suppression of beta-catenin-knockout colon cells, dose response, cell-based, HCT116, human colon tumor (AID 1045).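 Note: HCT116 colon tumor cells with beta catenin knocked out; cells exposed to compound for 60 hours.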 It is filed as functional.
The target of a further experiment is T2, Protein skinhead-1 (Caenorhabditis elegans, UniProt P34707).
T2 sequence (P34707 whole entry): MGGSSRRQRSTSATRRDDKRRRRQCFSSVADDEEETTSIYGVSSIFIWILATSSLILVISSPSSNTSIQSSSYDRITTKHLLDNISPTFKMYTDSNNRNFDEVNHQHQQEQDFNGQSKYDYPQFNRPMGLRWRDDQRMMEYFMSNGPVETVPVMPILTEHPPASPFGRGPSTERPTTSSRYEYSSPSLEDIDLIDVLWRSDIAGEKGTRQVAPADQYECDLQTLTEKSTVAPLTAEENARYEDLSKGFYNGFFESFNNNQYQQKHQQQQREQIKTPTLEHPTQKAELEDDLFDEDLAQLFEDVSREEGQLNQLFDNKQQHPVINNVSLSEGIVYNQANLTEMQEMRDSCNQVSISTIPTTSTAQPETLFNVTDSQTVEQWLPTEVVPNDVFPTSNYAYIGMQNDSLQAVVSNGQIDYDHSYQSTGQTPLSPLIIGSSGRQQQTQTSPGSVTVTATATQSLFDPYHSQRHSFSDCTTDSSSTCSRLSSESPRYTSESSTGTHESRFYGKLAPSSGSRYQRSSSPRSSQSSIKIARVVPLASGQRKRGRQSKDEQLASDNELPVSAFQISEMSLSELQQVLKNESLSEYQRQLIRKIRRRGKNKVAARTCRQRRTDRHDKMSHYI
It counts as functional.

Experiment [4] is described as follows: growth suppression of PTEN-null colon cells, dose response, cell-based, HCT116 PTEN knockout (AID 1047).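 Note: HCT116 colon tumor cells with PTEN knocked out; cells exposed to compound for 60 hours before readout; potency for loss of cell viability measured by luminescence.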 It is filed as functional.
Another experiment addresses Galanin receptor type 2 (Homo sapiens, UniProt O43603). In words: Dose Response cell-based high-throughput screening assay to identify antagonists of galanin receptor 2 (GALR2). [Related pubchem assays: 828, 866 ]. It is filed as functional.
A further experiment deals with INS1. In words: beta cell apoptosis inhibitors, cytokine rescue, dose response, luminescence, retest (AID 449756).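 Note: cell death triggered by IL-1 beta plus TNF-alpha plus IFN-gamma mixture; protective hits raise ATP signal compared with cytokine alone wells.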 The note with it: Rattus norvegicus. It counts as functional, cell-based.
The subject of experiment [5] is HEK293. In words: NOD2 signaling inhibitors in MDP-stimulated cells, cell-based, uHTS, luminescence (AID 2001). It is filed as functional. As to conditions: Homo sapiens.
The target in experiment [6] is Heat shock protein HSP 90-alpha (Homo sapiens, UniProt P07900). In words: Luminescence-based dose response biochemical high throughput screening assay for inhibitors of the Heat Shock Protein 90 (HSP90). [Related pubchem assays: 1831 (Summary AID.), 1846 (Confirmation screen.), 1789 (Primary screen.)].
In experiment [7] the test system is HEK293. In words: cells. The note with it: Homo sapiens. It is filed as functional, cell-based.
Experiment [8] concerns HEK293. In words: cells. It is filed as functional, cell-based. As to conditions: Homo sapiens. This is another data set of the same source.
Experiment [9] deals with HEK293. In words: cells. It is filed as functional, cell-based. The note with it: Homo sapiens. This is another data set of the same source.
The target of experiment [10] is Nucleotide-binding oligomerization domain-containing protein 2 (Homo sapiens, UniProt Q9HC29). In words: NOD2 signaling inhibitors, cell-based, luminescence, uHTS, HEK293 (AID 1566). It counts as functional.
Sequence of Nucleotide-binding oligomerization domain-containing protein 2 (Q9HC29 whole entry, the tested form may be a part): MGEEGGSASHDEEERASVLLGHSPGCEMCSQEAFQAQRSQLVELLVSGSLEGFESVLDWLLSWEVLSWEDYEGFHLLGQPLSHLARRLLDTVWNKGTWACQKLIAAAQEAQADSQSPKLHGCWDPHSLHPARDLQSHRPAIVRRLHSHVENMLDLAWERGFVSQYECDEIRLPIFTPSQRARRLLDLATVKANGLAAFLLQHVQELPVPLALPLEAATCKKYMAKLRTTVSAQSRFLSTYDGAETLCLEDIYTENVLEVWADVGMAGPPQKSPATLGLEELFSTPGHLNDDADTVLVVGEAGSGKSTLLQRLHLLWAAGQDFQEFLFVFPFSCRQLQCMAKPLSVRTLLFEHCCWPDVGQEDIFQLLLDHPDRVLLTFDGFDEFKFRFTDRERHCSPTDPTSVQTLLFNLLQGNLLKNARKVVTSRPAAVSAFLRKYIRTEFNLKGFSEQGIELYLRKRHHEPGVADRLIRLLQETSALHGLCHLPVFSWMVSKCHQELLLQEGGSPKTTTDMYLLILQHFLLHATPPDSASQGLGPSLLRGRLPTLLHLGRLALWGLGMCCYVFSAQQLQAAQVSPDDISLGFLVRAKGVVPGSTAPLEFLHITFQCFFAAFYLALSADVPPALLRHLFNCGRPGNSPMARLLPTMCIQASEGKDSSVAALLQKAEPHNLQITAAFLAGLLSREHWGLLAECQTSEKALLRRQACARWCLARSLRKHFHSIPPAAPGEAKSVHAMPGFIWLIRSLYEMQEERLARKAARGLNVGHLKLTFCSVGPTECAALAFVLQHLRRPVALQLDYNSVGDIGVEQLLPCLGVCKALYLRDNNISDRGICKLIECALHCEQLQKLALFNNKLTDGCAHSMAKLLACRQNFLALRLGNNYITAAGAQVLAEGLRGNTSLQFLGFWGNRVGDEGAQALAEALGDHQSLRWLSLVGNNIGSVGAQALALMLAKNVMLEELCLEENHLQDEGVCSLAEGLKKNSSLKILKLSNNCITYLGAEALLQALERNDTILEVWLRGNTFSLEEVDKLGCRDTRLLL
Experiment [11] deals with COUP transcription factor 2 (Homo sapiens, UniProt P24468). In words: Luminescence-based cell-based high throughput dose response assay to identify inhibitors of COUP-TFII (NR2F2). It counts as functional.
Sequence of COUP transcription factor 2 (P24468 whole entry): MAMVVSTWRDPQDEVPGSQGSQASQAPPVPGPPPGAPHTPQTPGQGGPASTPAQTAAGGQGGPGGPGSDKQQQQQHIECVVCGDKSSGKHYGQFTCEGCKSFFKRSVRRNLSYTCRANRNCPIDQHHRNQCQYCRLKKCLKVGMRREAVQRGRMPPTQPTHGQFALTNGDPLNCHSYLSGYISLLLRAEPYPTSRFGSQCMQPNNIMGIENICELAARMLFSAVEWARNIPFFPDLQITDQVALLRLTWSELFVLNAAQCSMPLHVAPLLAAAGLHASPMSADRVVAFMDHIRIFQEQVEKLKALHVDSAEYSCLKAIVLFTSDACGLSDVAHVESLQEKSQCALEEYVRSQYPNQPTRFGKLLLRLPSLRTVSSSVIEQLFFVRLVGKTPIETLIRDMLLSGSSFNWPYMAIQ
The subject of experiment [12] is HEK293. In words: NOD1 signaling inhibitors, primary screen, cell-based, luminescence, uHTS (AID 1578). It is filed as functional. As to conditions: Homo sapiens.
Experiment [13] is described as follows: cytotoxicity in COV434 cells, dose response, cytotoxicity control for PAX8 inhibitor project, cell-based, plate reader, dry powder, SA7 (AID 743145). It is filed as functional.
Experiment [14] can be described thus: PAX5 activity inhibitors, dose response, selectivity assay for PAX8 inhibitor project, cell-based, plate reader, dry powder samples (AID 743047).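 Note: HEK293 cells carrying a Pax5 driven CD19 promoter luciferase reporter; potency of inhibitors that lower reporter luminescence.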 It is filed as functional.
A short description of experiment [15]: cytotoxicity in COV362 ovarian cancer cells, dose response, cytotoxicity control for PAX8 inhibitor project, cell-based, plate reader, dry powder, SA12 (AID 743144). It counts as functional.
Experiment [16] is described as follows: cytotoxicity dependent on PAX8, dose response, cell-based, plate reader, dry powder (AID 743049). It is filed as functional.
The nature of experiment [17]: cytotoxicity in OV-90 ovarian cancer cells, dose response, PAX8 inhibitor project, cell-based, plate reader, dry powder, SA8 (AID 743149). It is filed as functional.
The nature of experiment [18]: IOSE-T80 ovarian epithelial cell cytotoxicity, dose response, cytotoxicity control for PAX8 inhibitor project, plate reader, dry powder samples (AID 743045). It is filed as functional, cell-based.
A short description of experiment [19]: cytotoxicity in OVCAR4 cells, dose response, cytotoxicity control for PAX8 inhibitor project, cell-based, plate reader, dry powder, SA11 (AID 743150). It is filed as functional. As to conditions: OVCAR-4.
A further experiment deals with Paired box protein Pax-8 (Homo sapiens, UniProt Q06710). In words: inhibitors of PAX8-driven TPO luciferase reporter, dose response, RMG-I cells, cherry-pick (AID 687027).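 Note: luciferase reporter driven by Pax8 target thyroperoxidase promoter measured by SteadyGlo luminescence.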 It is filed as functional, cell-based. (In general: In a reporter assay the amount or activity of a reporter protein is the signal.)
Sequence of Paired box protein Pax-8 (Q06710 whole entry): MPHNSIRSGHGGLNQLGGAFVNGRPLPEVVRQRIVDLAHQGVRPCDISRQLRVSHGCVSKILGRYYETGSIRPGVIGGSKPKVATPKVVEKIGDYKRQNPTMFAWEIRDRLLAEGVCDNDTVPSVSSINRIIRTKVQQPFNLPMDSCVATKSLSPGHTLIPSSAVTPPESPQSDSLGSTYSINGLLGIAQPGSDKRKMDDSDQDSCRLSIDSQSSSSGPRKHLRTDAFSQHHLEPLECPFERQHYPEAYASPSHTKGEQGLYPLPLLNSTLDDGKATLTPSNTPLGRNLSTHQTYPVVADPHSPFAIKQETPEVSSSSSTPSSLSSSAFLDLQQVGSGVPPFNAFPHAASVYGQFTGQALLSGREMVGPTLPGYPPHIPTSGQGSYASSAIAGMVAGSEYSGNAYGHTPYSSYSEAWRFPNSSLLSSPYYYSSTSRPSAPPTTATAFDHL
Experiment [20] is described as follows: PAX2 cell-based inhibition, dose response, selectivity assay for PAX8 inhibitor project, plate reader, dry powder samples (AID 743048).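 Note: HEK293 cells carrying a WT1 promoter luciferase reporter driven by expressed Pax2; potency is for inhibition of Pax2 driven reporter signal.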 It is filed as functional.
The nature of experiment [21]: Late stage counterscreen for inhibitors of Trypanosoma brucei methionyl tRNA synthetase (MetRS): Luminescence-based cell-based high throughput dose response assay to identify compounds that are cytotoxic to Jurkat human T lymphocyte cells. It counts as functional. For orientation: Counterscreens check selectivity or assay interference.
Experiment [22] has as its target T3, Methionyl-tRNA synthetase, putative (Trypanosoma brucei brucei, UniProt Q38C91).
T3 sequence (Q38C91 whole entry): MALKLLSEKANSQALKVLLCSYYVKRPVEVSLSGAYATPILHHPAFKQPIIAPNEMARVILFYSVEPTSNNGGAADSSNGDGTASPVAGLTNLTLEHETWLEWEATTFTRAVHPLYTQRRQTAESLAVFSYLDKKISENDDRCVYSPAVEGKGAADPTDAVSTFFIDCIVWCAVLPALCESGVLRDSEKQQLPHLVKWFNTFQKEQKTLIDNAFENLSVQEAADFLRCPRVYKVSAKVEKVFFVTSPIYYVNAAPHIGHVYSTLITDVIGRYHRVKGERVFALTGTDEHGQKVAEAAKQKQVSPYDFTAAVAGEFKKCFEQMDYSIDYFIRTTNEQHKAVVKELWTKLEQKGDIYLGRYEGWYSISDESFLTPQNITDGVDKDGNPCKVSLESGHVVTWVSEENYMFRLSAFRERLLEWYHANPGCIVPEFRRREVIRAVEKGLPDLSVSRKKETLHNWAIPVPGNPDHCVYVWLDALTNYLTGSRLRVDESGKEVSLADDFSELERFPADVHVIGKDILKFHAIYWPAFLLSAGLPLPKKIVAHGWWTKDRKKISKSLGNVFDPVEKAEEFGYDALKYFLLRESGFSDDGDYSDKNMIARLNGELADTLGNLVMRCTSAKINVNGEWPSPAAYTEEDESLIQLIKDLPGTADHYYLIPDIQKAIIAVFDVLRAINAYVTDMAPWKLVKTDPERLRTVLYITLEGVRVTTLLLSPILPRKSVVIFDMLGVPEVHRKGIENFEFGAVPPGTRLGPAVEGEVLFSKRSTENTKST
It counts as functional, Trypanosoma brucei brucei strain 927/4 GUTat10.1.

The nature of experiment [23]: Counterscreen for inhibitors of Trypanosoma brucei methionyl tRNA synthetase (MetRS): Luminescence-based cell-based high throughput dose response assay to identify compounds that are cytotoxic to Jurkat human T lymphocyte cells. It is filed as functional.
Experiment [24] has as its target T3, Methionyl-tRNA synthetase, putative. It is filed as functional, Trypanosoma brucei brucei strain 927/4 GUTat10.1. This is another data set of the same source.
Experiment [25] addresses NAD-dependent protein deacylase sirtuin-5, mitochondrial (Homo sapiens, UniProt Q9NXA8). In words: SIRT5 desuccinylase inhibitors, dose response, biochemical, fluorescence imaging, cherry-pick, set 5 (AID 720591).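 Note: desuccinylation of succinyl peptide AMC substrate read as fluorescence after trypsin release; potency of inhibitors that lower fluorescence and may act on trypsin instead.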
Experiment [26] deals with T4, Endoribonuclease toxin MazF (Escherichia coli K-12, UniProt P0AE70).
T4 sequence (P0AE70 whole entry): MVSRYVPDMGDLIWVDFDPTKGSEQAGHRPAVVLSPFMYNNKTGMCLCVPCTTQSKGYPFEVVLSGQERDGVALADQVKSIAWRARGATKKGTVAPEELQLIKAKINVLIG
In words: fluorescent RNA oligo signal without MazF, dose response, counter-screen for MazEF activator project, biochemical, fluorescence, single-stranded RNase substrate (AID 588502). It counts as functional.

For another experiment, the target named is Protein Tat (Human immunodeficiency virus type 1 group M subtype B (isolate HXB2)(HIV-1), UniProt P04608). It counts as functional.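 Note: tat binding to TAR RNA read out by fluorescence polarization.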
Sequence of Protein Tat (P04608 whole entry): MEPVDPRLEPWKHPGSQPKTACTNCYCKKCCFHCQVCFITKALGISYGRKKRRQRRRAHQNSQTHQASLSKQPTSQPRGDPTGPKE
Experiment [27] concerns the target T4, Endoribonuclease toxin MazF. In words: MazF toxin RNase activators, dose response, biochemical, fluorescence, single-stranded RNA substrate, uHTS hits (AID 588481). It is filed as functional.

The structures appear in SMILES notation. Activity calls are given as the source filed them.

Sequence of NAD-dependent protein deacylase sirtuin-5, mitochondrial (Q9NXA8 whole entry): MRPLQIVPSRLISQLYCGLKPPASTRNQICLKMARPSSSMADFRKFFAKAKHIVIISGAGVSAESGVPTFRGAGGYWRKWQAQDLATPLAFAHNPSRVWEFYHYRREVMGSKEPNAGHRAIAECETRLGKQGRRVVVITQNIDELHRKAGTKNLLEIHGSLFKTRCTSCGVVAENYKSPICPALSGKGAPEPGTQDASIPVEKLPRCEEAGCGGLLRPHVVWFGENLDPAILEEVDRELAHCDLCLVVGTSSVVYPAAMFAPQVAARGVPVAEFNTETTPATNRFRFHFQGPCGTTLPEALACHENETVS
Sequence of Galanin receptor type 2 (O43603 whole entry): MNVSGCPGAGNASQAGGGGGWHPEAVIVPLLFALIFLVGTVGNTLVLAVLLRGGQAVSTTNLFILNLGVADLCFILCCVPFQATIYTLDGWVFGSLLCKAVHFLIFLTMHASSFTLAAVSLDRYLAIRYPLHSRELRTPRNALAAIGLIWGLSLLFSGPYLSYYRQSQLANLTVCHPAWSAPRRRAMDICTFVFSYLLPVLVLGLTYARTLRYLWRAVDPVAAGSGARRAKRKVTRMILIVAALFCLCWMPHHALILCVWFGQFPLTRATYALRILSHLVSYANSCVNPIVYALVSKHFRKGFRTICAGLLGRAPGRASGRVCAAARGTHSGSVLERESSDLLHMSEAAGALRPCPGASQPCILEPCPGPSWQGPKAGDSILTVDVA

Regarding `CN(Cc1ccccc1)c1nc2c(c(=O)[nH]c(=O)n2C)n1Cc1ccccc1`, the half-maximal inhibitory concentration (IC50) (as a rule, the point on the concentration scale where inhibition reaches its midpoint) in experiment [1] was > 100 µM (not active).

In the case of `CCOc1cc(CNC2CCCC2)cc(Cl)c1OCc1ccc(F)cc1`, the AC50 (as a rule, the midpoint of the concentration-response curve, whichever way the signal moves) in [2] is 9.73 µM (active). The half-maximal effective concentration (EC50) (in general, the concentration giving half of the maximal effect) in [3] is 12.5 µM (active); in experiment [4] it was 16.1 µM (active). At Protein skinhead-1, the IC50 is < 3.13 µM (active).

Take `CC(=O)Nc1ccccc1OCC(=O)c1cc(C)n(Cc2cccs2)c1C`: the IC50 on Galanin receptor type 2 was > 42 µM (not active); with HEK293 [5] it was 2.05 µM (inactive); in experiment [6], 0.106 µM (active); with HEK293 [7], < 0.312 µM (active); in the experiment with HEK293 [8], > 20 µM (inactive); with HEK293 [9] it was 13.4 µM (active). In addition, the IC50 in experiment [11] was 0.807 µM (active). The AC50 with INS1 was 0.775 µM (active). For the same molecule, the EC50 in experiment [10] was < 0.31 µM (inactive); in the experiment with HEK293 [12] it was 0.566 µM (active).

With `COc1ccc(CCN2C(=O)CSC2=S)cc1OC`, the concentration at half-maximal activity (AC50) in [13] is 6.49 µM (active); in experiment [14], > 100 µM (inactive); in experiment [15], 16.6 µM (active); in experiment [16], 16 µM (active); in experiment [17], 8.61 µM (active); in [18], 16.8 µM (active). In addition, the values for the concentration at half-maximal activity (AC50) (in [19]; on Paired box protein Pax-8; in experiment [20]) were 51.2 µM (active), 7.01 µM (active) and 68.3 µM (active), respectively.

As for `Clc1ccc(OCCSCc2nc3ccccc3[nH]2)cc1`, the IC50 is > 83.3 µM (inactive) in experiment [21], 8.17 µM (active) in experiment [22], 83.3 µM (inactive) in experiment [23] and 5.85 µM (active) in experiment [24].

Take `O=C(O)CCNC(=O)c1ccc(NC(=O)C(c2ccccc2)c2ccccc2)cc1`: the half-maximal activity concentration (AC50) in experiment [25] was 10.6 µM (active).

`CCN(CC)c1ccc(/C=N/c2ccc(N(C)C)cc2)c(O)c1`: the EC50 in experiment [26] and in experiment [27] was > 99 µM (inactive) throughout. The 50% inhibitory concentration (IC50) at Protein Tat is > 100 µM (inconclusive).

Values taken from ChEMBL document CHEMBL1201862, “PubChem BioAssay data set” (2004).
